Legend:
Experiment in all cases: Kinase inhibitor library screening, PrestoBlue cell viability, 1 or 10 μM, 72 h
501Mel cells (parental) = conditions: 501Mel Parental, in %
Outline: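 Kinase inhibitors added at two fixed concentrations; 72 h exposure; PrestoBlue readout; % viability vs untreated; n ≥ 2 per line.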

[1] = tested on: 501Mel-GP cells (Dabrafenib-resistant); conditions: 501Mel GP, in %
[2] = tested on: 501Mel-XP cells (Vemurafenib-resistant); conditions: 501Mel XP, in %
A375 cells (parental) = conditions: A375 Parental; for cell viability (kinase inhibitor library screening) / cell viability, A375 Parental, 1μΜ / cell viability, A375 Parental, 10μΜ: in %
[3] = tested on: A375-GP cells (Dabrafenib-resistant); conditions: A375 GP; for cell viability (kinase inhibitor library screening) / cell viability, A375 GP, 1μΜ / cell viability, A375 GP, 10μΜ: in %
[4] = tested on: A375-XP cells (Vemurafenib-resistant); conditions: A375 XP; for cell viability (kinase inhibitor library screening) / cell viability, A375 XP, 1μΜ / cell viability, A375 XP, 10μΜ: in %
IGR37 cells (parental) = conditions: IGR37 Parental, in %
[5] = tested on: IGR37-GP cells (Dabrafenib-resistant); conditions: IGR37 GP
[6] = tested on: IGR37-XP cells (Vemurafenib-resistant); conditions: IGR37 XP

For CC1(C)CNc2cc(NC(=O)c3cccnc3NCc3ccncc3)ccc21 [Motesanib Diphosphate], the “cell viability (kinase inhibitor library screening)” value (501Mel cells (parental); 1μΜ) was 97.3, the “cell viability (kinase inhibitor library screening)” value (501Mel cells (parental); 10μΜ) was 94.6 and the “cell viability (kinase inhibitor library screening)” value ([1]; 1μΜ) was 98.5. For the same molecule, the “cell viability (kinase inhibitor library screening)” value ([1]; 10μΜ) was 82.7, the “cell viability (kinase inhibitor library screening)” value ([2]; 1μΜ) was 91.0 and the “cell viability (kinase inhibitor library screening)” value ([2]; 10μΜ) was 71.5. For the same molecule, the “cell viability (kinase inhibitor library screening)” value (A375 cells (parental); 1μΜ) was 105.3, the “cell viability (kinase inhibitor library screening)” value (A375 cells (parental); 10μΜ) was 89.5 and the “cell viability (kinase inhibitor library screening)” value ([3]; 1μΜ) was 99.4. For the same molecule, the “cell viability (kinase inhibitor library screening)” value ([3]; 10μΜ) was 89.9, the “cell viability (kinase inhibitor library screening)” value ([4]; 1μΜ) was 109.8 and the “cell viability (kinase inhibitor library screening)” value ([4]; 10μΜ) was 97.0. The “cell viability (kinase inhibitor library screening)” value (IGR37 cells (parental); 1μΜ) was 97.7, the “cell viability (kinase inhibitor library screening)” value (IGR37 cells (parental); 10μΜ) was 97.0 and the “cell viability (kinase inhibitor library screening)” value ([5]; 1μΜ, in %) was 85.5. The “cell viability (kinase inhibitor library screening)” value ([5]; 10μΜ, in %) was 85.5 and the “cell viability (kinase inhibitor library screening)” value ([6]; 10μΜ, in %) was 78.2.
For O=c1cc(N2CCOCC2)oc2c(-c3cccc4c3sc3ccccc34)cccc12 [NU7441(KU-57788)], the “cell viability, 501Mel Parental, 10μΜ” value (501Mel cells (parental); 10μΜ, 72 h) was 61.0, the “cell viability, 501Mel GP, 1μΜ” value ([1]; 1μΜ, 72 h) was 93.7 and the “cell viability, 501Mel GP, 10μΜ” value ([1]; 10μΜ, 72 h) was 32.9. The “cell viability, 501Mel XP, 10μΜ” value ([2]; 10μΜ, 72 h) was 10.9, the “cell viability, A375 Parental, 1μΜ” value (A375 cells (parental); 1μΜ, 72 h) was 98.8 and the “cell viability, A375 Parental, 10μΜ” value (A375 cells (parental); 10μΜ, 72 h) was 52.7. For the same molecule, the “cell viability, A375 GP, 1μΜ” value ([3]; 1μΜ, 72 h) was 92.7, the “cell viability, A375 GP, 10μΜ” value ([3]; 10μΜ, 72 h) was 47.4 and the “cell viability, A375 XP, 1μΜ” value ([4]; 1μΜ, 72 h) was 98.6. For the same molecule, the “cell viability, A375 XP, 10μΜ” value ([4]; 10μΜ, 72 h) was 55.7, the “cell viability, IGR37 Parental, 1μΜ” value (IGR37 cells (parental); 1μΜ, 72 h) was 96.8 and the “cell viability, IGR37 Parental, 10μΜ” value (IGR37 cells (parental); 10μΜ, 72 h) was 98.9. For the same molecule, the cell viability, IGR37 GP, 10μΜ ([5]; 10μΜ, 72 h) was 49.3%, the “cell viability, IGR37 GP, 1μΜ” value ([5]; 1μΜ, 72 h, in %) was 92.2 and the cell viability, IGR37 XP, 10μΜ ([6]; 10μΜ, 72 h) was 20.1%. For the same molecule, the “cell viability, IGR37 XP, 1μΜ” value ([6]; 1μΜ, 72 h, in %) was 99.7.
For Nc1ncnc2c1c(-c1cccc(OCc3ccccc3)c1)cn2C1CC(CN2CCCC2)C1 (stereo not drawn) [NVP-ADW742], the “cell viability, 501Mel Parental, 1μΜ” value (501Mel cells (parental); 1μΜ, 72 h) was 80.8, the “cell viability, 501Mel Parental, 10μΜ” value (501Mel cells (parental); 10μΜ, 72 h) was 0.529 and the “cell viability, 501Mel GP, 1μΜ” value ([1]; 1μΜ, 72 h) was 91.7. The “cell viability, 501Mel GP, 10μΜ” value ([1]; 10μΜ, 72 h) was -0.2, the “cell viability, 501Mel XP, 1μΜ” value ([2]; 1μΜ, 72 h) was 82.0 and the “cell viability, 501Mel XP, 10μΜ” value ([2]; 10μΜ, 72 h) was -0.346. For the same molecule, the “cell viability, A375 Parental, 1μΜ” value (A375 cells (parental); 1μΜ, 72 h) was 89.6, the “cell viability, A375 Parental, 10μΜ” value (A375 cells (parental); 10μΜ, 72 h) was 25.2 and the “cell viability, A375 GP, 1μΜ” value ([3]; 1μΜ, 72 h) was 57.9. For the same molecule, the “cell viability, A375 GP, 10μΜ” value ([3]; 10μΜ, 72 h) was 20.2, the “cell viability, A375 XP, 1μΜ” value ([4]; 1μΜ, 72 h) was 90.5 and the “cell viability, A375 XP, 10μΜ” value ([4]; 10μΜ, 72 h) was 13.9. For the same molecule, the “cell viability, IGR37 Parental, 1μΜ” value (IGR37 cells (parental); 1μΜ, 72 h) was 110.2, the “cell viability, IGR37 Parental, 10μΜ” value (IGR37 cells (parental); 10μΜ, 72 h) was 0.537 and the cell viability, IGR37 GP, 10μΜ ([5]; 10μΜ, 72 h) was 1.6%. The “cell viability, IGR37 GP, 1μΜ” value ([5]; 1μΜ, 72 h, in %) was 83.7, the cell viability, IGR37 XP, 10μΜ ([6]; 10μΜ, 72 h) was 1.2% and the “cell viability, IGR37 XP, 1μΜ” value ([6]; 1μΜ, 72 h, in %) was 78.5.
COc1ccc(-c2ccc3ncc4c(c3c2)n(-c2ccc(N3CCNCC3)c(C(F)(F)F)c2)c(=O)n4C)cn1 [NVP-BGT226] was tested, and the “Cell viability in kinase inhibitor library screening, 501Mel Parental, 1μΜ” value (501Mel cells (parental); 1μΜ, 72 h) was 1.2, the “Cell viability in kinase inhibitor library screening, 501Mel Parental, 10μΜ” value (501Mel cells (parental); 10μΜ, 72 h) was 1.1 and the “Cell viability in kinase inhibitor library screening, 501Mel GP, 1μΜ” value ([1]; 1μΜ, 72 h) was 0.9. For the same molecule, the “Cell viability in kinase inhibitor library screening, 501Mel GP, 10μΜ” value ([1]; 10μΜ, 72 h) was 0.145, the “Cell viability in kinase inhibitor library screening, 501Mel XP, 1μΜ” value ([2]; 1μΜ, 72 h) was 1.5 and the “Cell viability in kinase inhibitor library screening, 501Mel XP, 10μΜ” value ([2]; 10μΜ, 72 h) was 1.1. For the same molecule, the “Cell viability in kinase inhibitor library screening, A375 Parental, 10μΜ” value (A375 cells (parental); 10μΜ, 72 h) was 0.952, the “Cell viability in kinase inhibitor library screening, A375 Parental, 1μΜ” value (A375 cells (parental); 1μΜ, 72 h) was 9.1 and the “Cell viability in kinase inhibitor library screening, A375 GP, 1μΜ” value ([3]; 1μΜ, 72 h) was 7.1. The “Cell viability in kinase inhibitor library screening, A375 GP, 10μΜ” value ([3]; 10μΜ, 72 h) was 0.9, the “Cell viability in kinase inhibitor library screening, A375 XP, 1μΜ” value ([4]; 1μΜ, 72 h) was 7.2 and the “Cell viability in kinase inhibitor library screening, A375 XP, 10μΜ” value ([4]; 10μΜ, 72 h) was 1.0. The “Cell viability in kinase inhibitor library screening, IGR37 Parental, 1μΜ” value (IGR37 cells (parental); 1μΜ, 72 h) was 2.3, the “Cell viability in kinase inhibitor library screening, IGR37 Parental, 10μΜ” value (IGR37 cells (parental); 10μΜ, 72 h) was -1.8 and the Cell viability in kinase inhibitor library screening, IGR37 GP, 10μΜ ([5]; 10μΜ, 72 h) was 2.6%. The “Cell viability in kinase inhibitor library screening, IGR37 GP, 1μΜ” value ([5]; 1μΜ, 72 h, in %) was 2.9, the Cell viability in kinase inhibitor library screening, IGR37 XP, 10μΜ ([6]; 10μΜ, 72 h) was 1.4% and the “Cell viability in kinase inhibitor library screening, IGR37 XP, 1μΜ” value ([6]; 1μΜ, 72 h, in %) was 2.5.
